“And” between values parts separate entries of the source, which are not always exact repeats. Identical values can stand only once.
Columns and labels:
[1] = target: T1, D(3) dopamine receptor (Homo sapiens, UniProt P35462); assay: Displacement of [125I]iodosulpiride from human recombinant dopamine D3 receptor expressed in CHO cells; format: cell-based
[2] = target: T2, 5-hydroxytryptamine receptor 2A (Homo sapiens, UniProt P28223); assay: Displacement of radioligand from human recombinant 5HT2A receptor
T2 sequence (P28223 whole entry): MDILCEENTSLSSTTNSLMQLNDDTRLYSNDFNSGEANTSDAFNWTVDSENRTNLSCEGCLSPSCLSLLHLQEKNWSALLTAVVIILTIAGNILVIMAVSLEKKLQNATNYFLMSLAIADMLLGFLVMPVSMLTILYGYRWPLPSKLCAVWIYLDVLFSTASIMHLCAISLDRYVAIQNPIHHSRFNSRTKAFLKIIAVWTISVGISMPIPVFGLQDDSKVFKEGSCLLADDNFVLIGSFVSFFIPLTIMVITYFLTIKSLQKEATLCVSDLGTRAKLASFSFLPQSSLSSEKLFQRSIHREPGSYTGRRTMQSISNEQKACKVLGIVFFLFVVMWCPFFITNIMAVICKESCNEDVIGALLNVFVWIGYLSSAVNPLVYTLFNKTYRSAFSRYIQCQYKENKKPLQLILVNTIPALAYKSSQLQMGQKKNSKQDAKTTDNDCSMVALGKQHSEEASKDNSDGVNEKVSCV

[3] = target: T3, D(2) dopamine receptor (Homo sapiens, UniProt P14416); assay: Displacement of [125I]iodosulpiride from human recombinant dopamine D2 receptor expressed in CHO cells; format: cell-based
T3 sequence (P14416 whole entry): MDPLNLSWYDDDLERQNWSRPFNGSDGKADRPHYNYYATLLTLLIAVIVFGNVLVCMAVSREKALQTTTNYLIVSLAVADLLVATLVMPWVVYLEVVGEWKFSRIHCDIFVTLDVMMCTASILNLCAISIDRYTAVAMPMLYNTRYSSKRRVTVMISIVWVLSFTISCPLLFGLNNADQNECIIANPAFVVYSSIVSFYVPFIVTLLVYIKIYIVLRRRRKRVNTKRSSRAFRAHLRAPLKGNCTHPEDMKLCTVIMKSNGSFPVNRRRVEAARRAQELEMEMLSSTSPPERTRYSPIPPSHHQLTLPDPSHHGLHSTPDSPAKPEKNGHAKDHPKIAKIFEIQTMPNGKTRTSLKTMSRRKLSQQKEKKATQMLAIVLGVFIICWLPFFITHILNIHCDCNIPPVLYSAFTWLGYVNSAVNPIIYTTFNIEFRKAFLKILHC

[4] = target: T4, 5-hydroxytryptamine receptor 2C (Homo sapiens, UniProt P28335); assay: Displacement of radioligand from human recombinant 5HT2C receptor
T4 sequence (P28335 whole entry): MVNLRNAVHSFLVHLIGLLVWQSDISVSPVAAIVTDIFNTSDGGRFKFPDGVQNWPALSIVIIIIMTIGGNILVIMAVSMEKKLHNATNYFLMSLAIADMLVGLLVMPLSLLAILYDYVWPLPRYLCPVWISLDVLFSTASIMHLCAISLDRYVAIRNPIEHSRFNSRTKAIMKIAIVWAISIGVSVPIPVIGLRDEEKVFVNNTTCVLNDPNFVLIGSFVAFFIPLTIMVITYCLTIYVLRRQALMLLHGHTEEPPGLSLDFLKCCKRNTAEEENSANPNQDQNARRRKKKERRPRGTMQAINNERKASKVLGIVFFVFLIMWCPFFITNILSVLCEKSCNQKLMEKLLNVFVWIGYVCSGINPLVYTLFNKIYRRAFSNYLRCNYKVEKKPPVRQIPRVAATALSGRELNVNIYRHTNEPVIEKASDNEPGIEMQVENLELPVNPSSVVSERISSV

[5] = target: T5, 5-hydroxytryptamine receptor 6 (Homo sapiens, UniProt P50406); assay: Displacement of radioligand from human recombinant 5HT6 receptor
T5 sequence (P50406 whole entry): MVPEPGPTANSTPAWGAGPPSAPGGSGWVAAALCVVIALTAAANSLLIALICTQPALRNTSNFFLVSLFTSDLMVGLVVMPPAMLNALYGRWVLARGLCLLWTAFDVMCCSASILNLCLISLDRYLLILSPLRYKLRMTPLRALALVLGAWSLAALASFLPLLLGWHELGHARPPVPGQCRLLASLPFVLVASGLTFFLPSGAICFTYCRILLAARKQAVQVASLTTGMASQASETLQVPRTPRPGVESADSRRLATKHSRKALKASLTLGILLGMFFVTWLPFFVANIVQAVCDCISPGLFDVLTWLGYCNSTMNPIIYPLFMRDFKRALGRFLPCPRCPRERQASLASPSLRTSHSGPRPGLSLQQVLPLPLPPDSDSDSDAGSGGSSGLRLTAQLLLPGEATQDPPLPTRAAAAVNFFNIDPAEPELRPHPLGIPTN

[6] = target: Cytochrome P450 2C19 (Homo sapiens, UniProt P33261); assay: Inhibition of CYP2C19; format: ADME
Sequence of Cytochrome P450 2C19 (P33261 whole entry): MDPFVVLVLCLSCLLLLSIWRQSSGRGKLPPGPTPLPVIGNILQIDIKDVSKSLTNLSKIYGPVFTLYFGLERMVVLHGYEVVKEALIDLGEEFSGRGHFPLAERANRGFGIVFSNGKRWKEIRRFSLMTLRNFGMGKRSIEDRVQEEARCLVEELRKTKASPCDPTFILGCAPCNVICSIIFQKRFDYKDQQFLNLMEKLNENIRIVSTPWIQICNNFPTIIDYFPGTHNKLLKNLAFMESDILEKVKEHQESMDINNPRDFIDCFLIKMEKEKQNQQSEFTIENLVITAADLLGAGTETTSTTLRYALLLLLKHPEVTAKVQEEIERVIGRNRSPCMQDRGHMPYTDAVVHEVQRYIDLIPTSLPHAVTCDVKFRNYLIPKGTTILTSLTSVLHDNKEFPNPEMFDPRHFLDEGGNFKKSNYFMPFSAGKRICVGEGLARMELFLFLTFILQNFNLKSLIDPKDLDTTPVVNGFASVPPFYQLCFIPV

[7] = target: Cytochrome P450 2C9 (Homo sapiens, UniProt P11712); assay: Inhibition of CYP2C9; format: ADME
Sequence of Cytochrome P450 2C9 (P11712 whole entry): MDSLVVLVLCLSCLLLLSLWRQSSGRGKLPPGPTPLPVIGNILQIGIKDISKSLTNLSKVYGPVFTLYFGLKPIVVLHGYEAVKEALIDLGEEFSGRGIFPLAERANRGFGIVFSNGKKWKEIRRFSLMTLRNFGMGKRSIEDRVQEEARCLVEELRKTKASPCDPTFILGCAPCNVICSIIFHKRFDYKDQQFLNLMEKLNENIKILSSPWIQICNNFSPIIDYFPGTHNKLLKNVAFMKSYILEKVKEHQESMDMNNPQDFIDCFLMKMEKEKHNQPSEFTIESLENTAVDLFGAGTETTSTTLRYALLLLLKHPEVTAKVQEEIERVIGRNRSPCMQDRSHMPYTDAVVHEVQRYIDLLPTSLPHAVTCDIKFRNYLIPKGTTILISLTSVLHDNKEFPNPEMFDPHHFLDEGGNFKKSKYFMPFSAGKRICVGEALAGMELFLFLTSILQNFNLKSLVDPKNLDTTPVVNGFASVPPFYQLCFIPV

[8] = target: Cytochrome P450 3A4 (Homo sapiens, UniProt P08684); assay: Inhibition of CYP3A4; format: ADME
Sequence of Cytochrome P450 3A4 (P08684 whole entry): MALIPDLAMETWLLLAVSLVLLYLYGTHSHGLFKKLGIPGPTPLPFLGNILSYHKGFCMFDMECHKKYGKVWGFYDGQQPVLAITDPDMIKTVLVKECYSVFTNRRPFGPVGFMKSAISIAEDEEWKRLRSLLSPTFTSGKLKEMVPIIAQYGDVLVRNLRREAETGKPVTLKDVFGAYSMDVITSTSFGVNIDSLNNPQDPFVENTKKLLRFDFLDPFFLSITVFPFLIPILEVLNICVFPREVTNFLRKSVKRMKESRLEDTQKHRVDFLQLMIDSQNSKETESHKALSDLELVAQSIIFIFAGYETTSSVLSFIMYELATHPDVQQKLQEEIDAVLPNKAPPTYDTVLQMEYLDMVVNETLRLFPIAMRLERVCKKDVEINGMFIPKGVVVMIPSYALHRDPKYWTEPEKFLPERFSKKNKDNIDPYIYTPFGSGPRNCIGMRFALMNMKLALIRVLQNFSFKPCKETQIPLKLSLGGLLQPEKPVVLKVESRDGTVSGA

[9] = target: T6, Cytochrome P450 1A2 (Homo sapiens, UniProt P05177); assay: Inhibition of CYP1A2; format: ADME
T6 sequence (P05177 whole entry): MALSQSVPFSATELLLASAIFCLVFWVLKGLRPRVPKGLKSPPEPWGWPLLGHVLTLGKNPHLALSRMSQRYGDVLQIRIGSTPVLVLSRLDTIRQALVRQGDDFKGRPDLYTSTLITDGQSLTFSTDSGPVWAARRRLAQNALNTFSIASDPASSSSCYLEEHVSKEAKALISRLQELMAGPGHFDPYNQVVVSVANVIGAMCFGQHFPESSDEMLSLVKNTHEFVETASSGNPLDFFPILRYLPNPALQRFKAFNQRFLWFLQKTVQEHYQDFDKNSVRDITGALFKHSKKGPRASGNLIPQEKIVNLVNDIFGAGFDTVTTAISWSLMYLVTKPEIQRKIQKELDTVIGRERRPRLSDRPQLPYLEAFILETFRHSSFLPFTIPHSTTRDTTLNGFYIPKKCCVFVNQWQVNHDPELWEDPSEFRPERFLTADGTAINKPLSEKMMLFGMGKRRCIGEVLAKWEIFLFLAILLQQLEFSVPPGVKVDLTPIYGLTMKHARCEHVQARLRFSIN

[10] = target: Cytochrome P450 2D6 (Homo sapiens, UniProt P10635); assay: Inhibition of CYP2D6; format: ADME
Sequence of Cytochrome P450 2D6 (P10635 whole entry): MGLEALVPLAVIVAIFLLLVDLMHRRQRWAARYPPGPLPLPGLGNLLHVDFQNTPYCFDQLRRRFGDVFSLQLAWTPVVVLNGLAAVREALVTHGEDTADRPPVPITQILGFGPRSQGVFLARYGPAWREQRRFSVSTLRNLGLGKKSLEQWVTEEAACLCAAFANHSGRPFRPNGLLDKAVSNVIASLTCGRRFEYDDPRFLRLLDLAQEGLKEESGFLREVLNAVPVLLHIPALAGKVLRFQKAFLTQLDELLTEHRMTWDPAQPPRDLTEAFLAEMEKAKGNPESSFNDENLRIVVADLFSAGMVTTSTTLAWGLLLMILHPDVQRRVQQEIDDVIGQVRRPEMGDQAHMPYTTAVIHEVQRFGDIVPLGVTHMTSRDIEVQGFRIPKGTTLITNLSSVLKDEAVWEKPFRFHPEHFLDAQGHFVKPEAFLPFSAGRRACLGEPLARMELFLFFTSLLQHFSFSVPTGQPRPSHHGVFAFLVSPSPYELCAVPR

[11] = system: Rattus norvegicus; assay: Reversal of amphetamine-induced hyperactivity in orally dosed rat; format: functional; conditions: po
[12] = target: T5, 5-hydroxytryptamine receptor 6; assay: Agonist activity at human 5HT6 receptor by cAMP assay; format: functional
[13] = target: T4, 5-hydroxytryptamine receptor 2C; assay: Agonist activity at human 5HT2C receptor by FLIPR assay; format: functional
[14] = system: Rattus norvegicus; assay: Toxicity assessed as induction of catalepsy in rat model of extra-pyramidal side effect up to 100 mg/kg, po; format: organism-based; set-up: dose 100 mg/kg, route oral; conditions: in vivo
[15] = target: T1, D(3) dopamine receptor; assay: Agonist activity at human dopamine D3 receptor by [35S]GTP-gamma-S binding assay; format: functional
[16] = target: T3, D(2) dopamine receptor; assay: Agonist activity at human dopamine D2 receptor by [35S]GTPgammaS binding assay; format: functional
[17] = target: T2, 5-hydroxytryptamine receptor 2A; assay: Agonist activity at human 5HT2A receptor by FLIPR assay; format: functional

T1 sequence (P35462 whole entry): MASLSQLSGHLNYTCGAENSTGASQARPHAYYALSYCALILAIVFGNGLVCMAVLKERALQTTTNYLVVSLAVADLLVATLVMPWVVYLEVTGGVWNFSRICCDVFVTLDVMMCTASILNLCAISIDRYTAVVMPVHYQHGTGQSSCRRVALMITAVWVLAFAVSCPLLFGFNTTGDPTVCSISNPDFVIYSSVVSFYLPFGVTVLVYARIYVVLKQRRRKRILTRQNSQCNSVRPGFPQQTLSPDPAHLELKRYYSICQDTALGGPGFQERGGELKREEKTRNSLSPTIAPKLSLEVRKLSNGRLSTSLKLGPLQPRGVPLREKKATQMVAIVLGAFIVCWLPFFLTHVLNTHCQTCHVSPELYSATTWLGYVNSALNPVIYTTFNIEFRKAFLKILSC

Ki [1]	Ki [2] [nM]	Ki [3]	Ki [4] [nM]	Ki [5] [nM]	Structure (SMILES)	also measured
15.8 nM	15.8	158 nM	50.1	2	CCCCc1ccc(S(=O)(=O)Nc2ccc3c(c2)CCNCC3)cc1	–
25.1 nM	50.1	316 nM	12.6	6.31	Cc1ccc(-c2ccc(S(=O)(=O)Nc3ccc4c(c3)CCN(C)CC4)cc2)s1	–
0.794 nM	25.1	3.98 nM	39.8	10	COc1cc2c(cc1NS(=O)(=O)c1ccc(-c3ccc(Cl)cc3)cc1)CCN(C)CC2	–
6.31 nM	126	31.6 nM	50.1	5.01	Cc1cc(S(=O)(=O)Nc2ccc3c(c2)CCN(C)CC3)ccc1-c1ccc(Cl)cc1	–
20 nM	5.01	200 nM	10	5.01	CCCCc1ccc(S(=O)(=O)Nc2ccc3c(c2)CN(C)C3)cc1	–
2.51 nM	31.6	39.8 nM	39.8	50.1	CN1CCc2cc(Cl)c(NS(=O)(=O)c3ccc(-c4ccc(Cl)cc4)cc3)cc2CC1	–
15.8 nM	794	501 nM	100	25.1	CN1CCc2ccc(NS(=O)(=O)c3ccc(-c4ccc(C#N)cc4)cc3)cc2CC1	–
39.8 nM	–	398 nM	126	3.98	CN1CCc2ccc(NS(=O)(=O)c3ccc(-c4ccc(Cl)cc4)s3)cc2CC1	–
0.794 nM	15.8	6.31 nM	39.8	31.6	CC(C)Oc1cc2c(cc1NS(=O)(=O)c1ccc(-c3ccc(Cl)cc3)cc1)CCN(C)CC2	–
12.6 nM and 10 nM	12.6	794 nM and 1000 nM	31.6	25.1	CCCCc1ccc(S(=O)(=O)Nc2ccc3c(c2)CNCC3)cc1	Log Ki [2]: -7.9; Log Ki [4]: -7.5; Log Ki [5]: -7.6
1.58 nM	20	15.8 nM	79.4	15.8	Cc1cc2c(cc1NS(=O)(=O)c1ccc(-c3ccc(Cl)cc3)cc1)CCN(C)CC2	–
2 nM	5.01	31.6 nM	10	1.26	CCCCc1ccc(S(=O)(=O)Nc2ccc3c(c2)CCN(C)CC3)cc1	IC50 [6]: 500 nM; IC50 [7]: 47000 nM; IC50 [8]: 12000 nM; IC50 [9]: 23000 nM; IC50 [10]: 1600 nM
3.16 nM	1.58	50.1 nM	5.01	7.94	CC(C)Nc1cc2c(cc1NS(=O)(=O)c1ccc(-c3ccc(Cl)cc3)cc1)CCN(C)CC2	IC50 [6]: 25000 nM; ED50 [11]: 20.6 mg/kg; IC50 [7]: 17000 nM; EC50 [12]: > 25100 nM; IC50 [8]: 7500 nM; IC50 [9]: 51000 nM; IC50 [10]: 19000 nM; EC50 [13]: > 12600 nM; Activity [14]: Not Active; EC50 [15]: > 10000 nM; EC50 [16]: > 10000 nM; EC50 [17]: > 12600 nM
3.98 nM	5.01	100 nM	15.8	12.6	CC(C)c1cc2c(cc1NS(=O)(=O)c1ccc(-c3ccc(Cl)cc3)cc1)CCN(C)CC2	–
3.98 nM	50.1	50.1 nM	31.6	7.94	CN1CCc2ccc(NS(=O)(=O)c3ccc(-c4ccc(F)c(Cl)c4)cc3)cc2CC1	–
5.01 nM	–	63.1 nM	126	50.1	CN1CCc2cc(Br)c(NS(=O)(=O)c3ccc(-c4ccc(Cl)cc4)cc3)cc2CC1	–
15.8 nM	200	158 nM	20	5.01	CN1CCc2ccc(NS(=O)(=O)c3ccc(-c4ccc(Cl)cc4)cc3)cc2CC1	IC50 [6]: 16000 nM; IC50 [7]: 45000 nM; IC50 [8]: 58000 nM; IC50 [9]: 25000 nM; IC50 [10]: 1500 nM
39.8 nM	–	794 nM	–	50.1	CCCCc1ccc(S(=O)(=O)Nc2ccc3c(c2)CNC3)cc1	–
15.8 nM	1260	100 nM	398	10	Cc1noc(C)c1-c1ccc(S(=O)(=O)Nc2ccc3c(c2)CCN(C)CC3)cc1	–
25.1 nM	–	398 nM	–	–	CCCCc1ccc(S(=O)(=O)Nc2ccc3c(c2)CN(C)CC3)cc1	–
